The text below walks through data of ChEMBL document CHEMBL4342404, “Anti-cholinesterase hybrids as multi-target-directed ligands against Alzheimer's disease (1998-2018)” (Bioorg Med Chem, 2019).

Assay [1] deals with T1, Cholinesterase (Homo sapiens, UniProt P06276). In words: Inhibition of human serum butyrylcholinesterase using butyrylthiocholine iodide as substrate preincubated for 20 mins followed by substrate addition by Ellman's method. (In general: In Ellman's method for cholinesterases, released thiocholine reacts with DTNB.)
Assay [2] concerns the target T2, Acetylcholinesterase (Homo sapiens, UniProt P22303). Kind of assay: Inhibition of human Acetylcholinesterase using acetylthiocholine as substrate preincubated for 20 mins followed by substrate addition by Ellman's method.
The target of assay [3] is T3, Beta-secretase 1 (Homo sapiens, UniProt P56817). Kind of assay: Inhibition human BACE1 expressed in baculovirus expression system using Panvera peptide as substrate preincubated for 60 mins followed by substrate addition and measured after 60 mins by spectrofluorometric assay.
Assay [4] concerns the target Amyloid-beta precursor protein (Homo sapiens) (UniProt P05067). Kind of assay: Inhibition of HFIP pretreated amyloid beta (1-42) (unknown origin) self aggregation at 10 uM incubated for 24 hrs by thioflavin T based fluorescence assay relative to control.
The target in assay [5] is T2, Acetylcholinesterase. Kind of assay: Inhibition of human AChE-induced amyloid beta 1 to 40 (unknown origin) aggregation at 100 uM by thioflavin-T fluorescence method relative to control.
The target in assay [6] is T3, Beta-secretase 1. In words: Inhibition human BACE1 expressed in baculovirus expression system at 10 uM using Panvera peptide as substrate preincubated for 60 mins followed by substrate addition and measured after 60 mins by spectrofluorometric assay relative to control.
Assay [7] addresses Acetylcholinesterase (Rattus norvegicus) (UniProt P37136). In words: Inhibition of acetylcholinesterase in Wistar rat primary cortical neuron cells assessed as reduction in amyloidbeta40 level at […] incubated for 24 hrs by ELISA relative to control. (An ELISA detects its analyte on a solid surface through an enzyme-linked reagent.)
Assay [8] has as its target T4, Acetylcholinesterase (Electrophorus electricus, UniProt O42275). Kind of assay: Inhibition of electric eel AChE using acetylthiocholine iodide as substrate pretreated for 5 mins followed by substrate addition and measured after 2 mins by Ellman's method.
For assay [9], the target named is T2, Acetylcholinesterase. Kind of assay: Inhibition of human erythrocyte acetylcholinesterase using acetylthiocholine as substrate preincubated for 60 mins followed by substrate addition by Ellman's method.
Assay [10] has as its target T2, Acetylcholinesterase.
Assay [11] has as its target T1, Cholinesterase. Kind of assay: Inhibition of human butyrylcholinesterase.
Assay [12] deals with Butyrylcholinesterase (Rattus norvegicus) (UniProt Q9JKC1). Kind of assay: Inhibition of rat serum butyrylcholinesterase using butyrylthiocholine iodide as substrate at 50 uM incubated for 15 mins by Ellman's method relative to control.
In assay [13] the target is T4, Acetylcholinesterase. Kind of assay: Inhibition of electric eel AChE using acetylthiocholine iodide as substrate incubated for 15 mins by Ellman's method.
The target of assay [14] is T5, Acetylcholinesterase (Bos taurus, UniProt P23795).
T5 sequence (P23795 whole entry): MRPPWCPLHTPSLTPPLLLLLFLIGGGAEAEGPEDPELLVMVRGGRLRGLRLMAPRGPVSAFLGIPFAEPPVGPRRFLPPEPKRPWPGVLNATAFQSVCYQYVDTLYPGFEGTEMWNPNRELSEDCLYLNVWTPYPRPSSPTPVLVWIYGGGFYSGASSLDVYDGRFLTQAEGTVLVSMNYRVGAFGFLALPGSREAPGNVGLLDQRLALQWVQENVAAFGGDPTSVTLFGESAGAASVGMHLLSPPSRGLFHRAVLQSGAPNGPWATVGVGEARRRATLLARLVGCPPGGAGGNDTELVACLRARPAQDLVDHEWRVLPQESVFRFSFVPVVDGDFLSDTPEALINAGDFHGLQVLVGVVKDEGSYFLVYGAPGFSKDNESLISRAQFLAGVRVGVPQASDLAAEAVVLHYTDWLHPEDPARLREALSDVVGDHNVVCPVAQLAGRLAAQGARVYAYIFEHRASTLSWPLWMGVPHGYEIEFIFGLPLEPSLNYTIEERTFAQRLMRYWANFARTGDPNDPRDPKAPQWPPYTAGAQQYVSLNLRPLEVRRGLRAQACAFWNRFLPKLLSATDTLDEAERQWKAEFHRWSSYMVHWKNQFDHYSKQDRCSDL
Description: Inhibition of bovine erythrocyte acetylcholinesterase using acetylthiocholine as substrate incubated for 15 mins by Ellman's method

Assay [15] addresses T6, Cholinesterase (Equus caballus, UniProt P81908).
Description: Inhibition of equine serum BuChE preincubated for 15 mins followed by substrate addition and measured after 15 mins by Ellman's method
Assay [16] has as its target T4, Acetylcholinesterase.
Description: Inhibition of electric eel AChE using acetylthiocholine iodide as substrate preincubated for 15 mins followed by substrate addition and measured after 15 mins by Ellman's method
Assay [17] deals with T1, Cholinesterase. In words: Inhibition of human butyrylcholinesterase by Ellman's method.
Assay [18] deals with Amine oxidase [flavin-containing] B (Homo sapiens, UniProt P27338). In words: Inhibition of recombinant human MAO-B using p-tyramine as substrate preincubated for 15 mins followed by substrate addition and measured over 15 mins by Amplex red reagent/horseradish peroxidase coupled fluorescence assay.
Assay [19] deals with T2, Acetylcholinesterase. In words: Inhibition of human acetylcholinesterase by Ellman's method.
Assay [20] deals with T2, Acetylcholinesterase. Kind of assay: Inhibition of human acetylcholinesterase using acetylthiocholine as substrate pretreated followed by substrate addition and measured after 15 mins by Ellman's method.
Assay [21] has as its target T6, Cholinesterase. In words: Inhibition of equine serum BuChE using butyrylthiocholine iodide as substrate pretreated followed by substrate addition and measured after 2 mins by Ellman's method.
The species named for assay [22] is Homo sapiens. Kind of assay: Selectivity index, ratio of IC50 for human AChE to IC50 for human BuChE.
For assay [23], the target named is T4, Acetylcholinesterase. In words: Inhibition of electric eel AChE using acetylthiocholine iodide as substrate pretreated followed by substrate addition and measured after 2 mins by Ellman's method.
The target of assay [24] is T1, Cholinesterase. Kind of assay: Inhibition of human butyrylcholinesterase using butyrylthiocholine iodide as substrate pretreated followed by substrate addition and measured after 15 mins by Ellman's method.
Assay [25] deals with Histamine H3 receptor (Homo sapiens, UniProt Q9Y5N1). Kind of assay: biochemical.
Description: Displacement of [3H]-N-alpha-methylhistamine from human H3R expressed in HEK293 cell membranes incubated for 90 mins by liquid scintillation counting method
In assay [26] the target is T1, Cholinesterase. In words: Inhibition of human plasma butyrylcholinesterase by Ellman's method.
Assay [27] has as its target T2, Acetylcholinesterase. Kind of assay: biochemical.
Description: Inhibition of human acetylcholinesterase expressed in HEK 293 cells using acetylthiocholine iodide as substrate by Ellman's method
Assay [28] has as its target Amine oxidase [flavin-containing] A (Homo sapiens, UniProt P21397).
Description: Inhibition of recombinant human MAOA expressed in baculovirus infected BTI insect cells using p-tyramine as substrate preincubated for 30 mins followed by substrate addition by Amplex red reagent/horseradish peroxidase coupled fluorescence assay

T4 sequence (O42275 whole entry): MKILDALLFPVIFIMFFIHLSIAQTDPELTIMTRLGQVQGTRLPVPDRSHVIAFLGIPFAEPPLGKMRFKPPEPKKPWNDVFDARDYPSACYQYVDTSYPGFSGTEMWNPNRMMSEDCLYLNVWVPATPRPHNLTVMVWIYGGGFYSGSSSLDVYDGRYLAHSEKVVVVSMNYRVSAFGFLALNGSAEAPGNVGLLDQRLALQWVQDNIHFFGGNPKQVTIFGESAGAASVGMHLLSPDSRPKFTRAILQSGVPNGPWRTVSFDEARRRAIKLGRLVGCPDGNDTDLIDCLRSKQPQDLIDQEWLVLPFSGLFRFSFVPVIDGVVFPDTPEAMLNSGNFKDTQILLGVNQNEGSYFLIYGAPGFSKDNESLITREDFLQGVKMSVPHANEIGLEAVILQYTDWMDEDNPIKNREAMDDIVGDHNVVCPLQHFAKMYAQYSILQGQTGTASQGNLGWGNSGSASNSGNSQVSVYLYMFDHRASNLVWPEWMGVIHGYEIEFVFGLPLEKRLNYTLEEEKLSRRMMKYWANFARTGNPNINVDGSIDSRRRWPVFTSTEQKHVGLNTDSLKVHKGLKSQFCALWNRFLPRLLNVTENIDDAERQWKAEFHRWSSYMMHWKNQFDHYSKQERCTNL
T2 sequence (P22303 whole entry): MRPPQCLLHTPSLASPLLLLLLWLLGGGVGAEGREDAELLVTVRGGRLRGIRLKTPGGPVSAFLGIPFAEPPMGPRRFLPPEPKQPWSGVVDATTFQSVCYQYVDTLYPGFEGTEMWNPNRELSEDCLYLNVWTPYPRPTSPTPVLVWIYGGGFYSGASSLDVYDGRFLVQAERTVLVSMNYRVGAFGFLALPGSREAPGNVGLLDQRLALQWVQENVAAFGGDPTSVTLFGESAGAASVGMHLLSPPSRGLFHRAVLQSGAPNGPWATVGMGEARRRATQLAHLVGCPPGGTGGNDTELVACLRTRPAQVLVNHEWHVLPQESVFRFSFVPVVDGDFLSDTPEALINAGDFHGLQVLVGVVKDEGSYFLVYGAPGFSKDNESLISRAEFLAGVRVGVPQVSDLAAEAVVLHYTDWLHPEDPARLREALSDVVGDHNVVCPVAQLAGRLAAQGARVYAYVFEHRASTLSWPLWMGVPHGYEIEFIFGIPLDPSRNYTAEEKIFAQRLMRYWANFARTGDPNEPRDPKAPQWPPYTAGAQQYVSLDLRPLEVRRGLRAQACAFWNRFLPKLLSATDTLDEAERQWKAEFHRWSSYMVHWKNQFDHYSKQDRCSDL
T1 sequence (P06276 whole entry): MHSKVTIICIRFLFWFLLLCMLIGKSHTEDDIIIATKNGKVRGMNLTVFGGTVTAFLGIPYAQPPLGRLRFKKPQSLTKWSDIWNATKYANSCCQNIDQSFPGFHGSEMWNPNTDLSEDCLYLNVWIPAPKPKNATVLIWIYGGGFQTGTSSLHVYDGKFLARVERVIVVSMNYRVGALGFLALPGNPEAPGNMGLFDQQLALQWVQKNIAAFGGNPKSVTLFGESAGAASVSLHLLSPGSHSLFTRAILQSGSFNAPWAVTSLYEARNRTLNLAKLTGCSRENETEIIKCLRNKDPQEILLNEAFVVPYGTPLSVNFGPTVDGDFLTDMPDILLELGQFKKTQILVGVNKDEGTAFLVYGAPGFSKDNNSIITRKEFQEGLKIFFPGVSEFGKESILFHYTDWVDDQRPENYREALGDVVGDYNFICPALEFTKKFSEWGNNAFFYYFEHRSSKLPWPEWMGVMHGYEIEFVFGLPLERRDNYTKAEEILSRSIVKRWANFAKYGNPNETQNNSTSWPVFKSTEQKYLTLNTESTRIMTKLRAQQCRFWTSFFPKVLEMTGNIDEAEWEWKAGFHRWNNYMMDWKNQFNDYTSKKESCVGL
T3 sequence (P56817 whole entry): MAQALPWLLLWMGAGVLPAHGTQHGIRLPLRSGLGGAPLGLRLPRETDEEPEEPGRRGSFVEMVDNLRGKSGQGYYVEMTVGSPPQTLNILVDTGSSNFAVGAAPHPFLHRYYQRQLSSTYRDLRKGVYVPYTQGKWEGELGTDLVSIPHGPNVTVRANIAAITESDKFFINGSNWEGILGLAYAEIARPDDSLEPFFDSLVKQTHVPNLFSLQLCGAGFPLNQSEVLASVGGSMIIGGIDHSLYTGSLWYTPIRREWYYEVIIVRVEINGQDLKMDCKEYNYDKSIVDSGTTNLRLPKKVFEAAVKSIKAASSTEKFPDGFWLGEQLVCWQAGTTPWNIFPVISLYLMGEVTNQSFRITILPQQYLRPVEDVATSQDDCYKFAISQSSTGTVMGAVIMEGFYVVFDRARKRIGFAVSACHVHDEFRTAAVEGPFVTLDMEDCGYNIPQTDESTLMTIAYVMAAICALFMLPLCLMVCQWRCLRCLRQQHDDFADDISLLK
T6 sequence (P81908 whole entry): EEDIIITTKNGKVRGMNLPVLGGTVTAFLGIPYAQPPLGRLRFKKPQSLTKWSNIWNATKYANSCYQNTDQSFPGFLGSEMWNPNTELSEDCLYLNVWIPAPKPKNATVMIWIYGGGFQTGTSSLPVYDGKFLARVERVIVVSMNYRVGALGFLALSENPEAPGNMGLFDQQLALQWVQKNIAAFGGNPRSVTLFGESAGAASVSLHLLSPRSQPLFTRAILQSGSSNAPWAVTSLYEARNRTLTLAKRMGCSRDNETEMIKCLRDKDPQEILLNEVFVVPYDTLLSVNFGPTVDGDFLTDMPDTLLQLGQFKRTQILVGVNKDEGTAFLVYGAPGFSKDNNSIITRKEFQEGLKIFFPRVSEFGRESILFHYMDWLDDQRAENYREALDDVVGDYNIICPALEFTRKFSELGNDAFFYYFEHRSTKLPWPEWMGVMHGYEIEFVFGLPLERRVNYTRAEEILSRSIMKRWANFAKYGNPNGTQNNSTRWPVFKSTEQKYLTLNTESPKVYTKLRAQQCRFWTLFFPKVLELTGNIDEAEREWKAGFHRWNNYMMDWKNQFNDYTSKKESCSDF
Histamine H3 receptor, sequence (Q9Y5N1 whole entry): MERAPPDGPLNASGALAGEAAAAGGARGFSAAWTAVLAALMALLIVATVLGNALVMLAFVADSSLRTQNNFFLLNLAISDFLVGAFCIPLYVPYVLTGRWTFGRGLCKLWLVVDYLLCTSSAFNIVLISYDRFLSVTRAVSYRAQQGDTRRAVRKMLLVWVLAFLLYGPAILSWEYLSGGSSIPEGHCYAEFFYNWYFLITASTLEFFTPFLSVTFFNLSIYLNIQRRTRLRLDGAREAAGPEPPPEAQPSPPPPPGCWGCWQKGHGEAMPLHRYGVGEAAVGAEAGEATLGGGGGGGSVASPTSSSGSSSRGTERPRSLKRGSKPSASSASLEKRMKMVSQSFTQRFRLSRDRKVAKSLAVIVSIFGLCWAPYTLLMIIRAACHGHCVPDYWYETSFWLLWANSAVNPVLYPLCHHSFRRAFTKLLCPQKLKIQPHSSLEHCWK
Amine oxidase [flavin-containing] A, sequence (P21397 whole entry): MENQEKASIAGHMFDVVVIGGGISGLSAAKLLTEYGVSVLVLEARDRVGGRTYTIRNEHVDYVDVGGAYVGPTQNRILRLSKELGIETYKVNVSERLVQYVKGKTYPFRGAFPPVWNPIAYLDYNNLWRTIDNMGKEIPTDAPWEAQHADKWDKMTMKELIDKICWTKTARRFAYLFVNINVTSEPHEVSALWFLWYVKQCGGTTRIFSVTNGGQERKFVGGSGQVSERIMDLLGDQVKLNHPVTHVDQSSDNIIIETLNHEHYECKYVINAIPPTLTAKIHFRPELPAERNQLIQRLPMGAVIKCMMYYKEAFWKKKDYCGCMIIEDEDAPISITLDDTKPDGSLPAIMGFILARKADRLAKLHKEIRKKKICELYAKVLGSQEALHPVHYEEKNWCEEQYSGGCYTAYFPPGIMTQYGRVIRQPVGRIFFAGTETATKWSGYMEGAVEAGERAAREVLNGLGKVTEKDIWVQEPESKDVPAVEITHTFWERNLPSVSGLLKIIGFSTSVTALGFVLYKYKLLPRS
Amine oxidase [flavin-containing] B, sequence (P27338 whole entry): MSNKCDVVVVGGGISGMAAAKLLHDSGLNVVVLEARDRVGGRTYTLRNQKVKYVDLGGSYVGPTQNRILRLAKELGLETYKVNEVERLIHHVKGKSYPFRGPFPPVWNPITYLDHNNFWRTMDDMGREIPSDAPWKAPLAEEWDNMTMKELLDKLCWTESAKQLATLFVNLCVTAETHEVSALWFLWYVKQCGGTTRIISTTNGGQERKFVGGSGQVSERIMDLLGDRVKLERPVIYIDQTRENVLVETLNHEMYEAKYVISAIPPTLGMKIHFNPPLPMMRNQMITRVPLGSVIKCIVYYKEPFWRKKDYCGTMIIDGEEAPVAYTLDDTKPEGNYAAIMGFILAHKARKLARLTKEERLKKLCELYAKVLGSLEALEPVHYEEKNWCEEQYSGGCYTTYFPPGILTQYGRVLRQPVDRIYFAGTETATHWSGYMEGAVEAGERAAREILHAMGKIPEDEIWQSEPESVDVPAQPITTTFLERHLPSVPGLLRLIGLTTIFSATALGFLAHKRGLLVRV
Butyrylcholinesterase (Rattus norvegicus), sequence (Q9JKC1 as listed by the source): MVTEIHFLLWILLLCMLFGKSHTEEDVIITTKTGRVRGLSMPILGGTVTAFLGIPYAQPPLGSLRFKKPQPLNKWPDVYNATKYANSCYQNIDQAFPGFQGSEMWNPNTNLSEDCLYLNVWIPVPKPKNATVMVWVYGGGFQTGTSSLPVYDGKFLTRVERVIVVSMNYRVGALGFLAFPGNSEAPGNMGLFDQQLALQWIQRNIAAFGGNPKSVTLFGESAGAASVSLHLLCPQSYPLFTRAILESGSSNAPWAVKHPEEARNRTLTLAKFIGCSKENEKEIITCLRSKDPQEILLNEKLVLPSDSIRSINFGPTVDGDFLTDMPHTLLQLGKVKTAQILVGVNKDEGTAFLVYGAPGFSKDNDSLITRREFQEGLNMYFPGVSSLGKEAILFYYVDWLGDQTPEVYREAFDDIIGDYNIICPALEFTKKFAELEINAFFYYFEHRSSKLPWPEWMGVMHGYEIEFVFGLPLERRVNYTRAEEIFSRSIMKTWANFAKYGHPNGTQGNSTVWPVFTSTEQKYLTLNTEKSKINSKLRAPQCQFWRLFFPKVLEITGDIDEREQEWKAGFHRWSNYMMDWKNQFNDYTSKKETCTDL

As usually defined, the IC50 is the concentration needed to halve the response being measured. As a reminder, the inhibition is the drop in the measured response relative to a control, in per cent. For `c1ccc2c(NCc3ccc(-c4ccc(CNc5c6c(nc7ccccc57)CCCC6)cc4)cc3)c3c(nc2c1)CCCC3`, the values for the IC50 in [1], in assay [2] and in [3] were 0.86 nM, 3.61 nM and 2770 nM, respectively. Further, the inhibition in assay [4] came to 75.5%; in [5], 61.8%; in assay [6], 89.7%.
`CC(C(=O)NCCCCCCNc1c2c(nc3ccccc13)CCCC2)c1ccc(-c2ccccc2)c(F)c1` (stereo not drawn): the inhibition in assay [7] turned out to be 31%.
Consider `CN(C)C(=O)Oc1ccccc1-c1nc2ccccc2s1`, for which the half-maximal inhibitory concentration (IC50) in assay [8] is 20900 nM.
In the case of `C#CCN(C)C(C)Cc1cccc(OC(=O)N(C)CCCCCC)c1` (single isomer, unassigned; (+)), in [9], the IC50 was 2000 nM.
Consider `COc1ccc2[nH]cc(CCNC(=O)CN(CCC3CCN(Cc4ccccc4)CC3)C(=O)/C=C/c3ccc(O)c(OC)c3)c2c1`, for which the IC50 in assay [10] came out at 30.7 nM; in assay [11], 21.8 nM.
`CCN(CC)Cc1ccc(/C=C/c2cnc(C)c(O)c2CO)cc1O`: the inhibition in [12] amounted to 16.7%. Moreover, half-maximal inhibition in assay [13] (IC50) was put at 2110 nM.
In turn, `CC1=CC2Cc3nc4cc(Cl)ccc4c(N)c3C(C1)C2` (single isomer, unassigned; (+)) [HUPRINE Y] showed an IC50 in [14] of 36.1 nM.
Turning to `O=C(NCCc1c[nH]c2ccccc12)c1cc(-c2ccccc2Cl)on1`, the IC50 in [15] is 46100 nM; in assay [16], 29500 nM.
`Cc1cc(=O)oc2cc(OC/C=C/CCn3cnc4c(N5CCCC5)ncnc43)ccc12`: the IC50 in assay [17] was determined as 4650 nM.
As to `Cc1cc(=O)oc2ccc(OC/C=C/CCn3cnc4c(N5CCCCC5)ncnc43)cc12`, the IC50 in assay [18] amounted to 6800 nM; in assay [19] it was 11900 nM.
For `COc1cc(/C=C/C(=O)NCCNc2c3c(nc4ccccc24)CCCC3)ccc1OCc1ccccc1`, the IC50 came to 55.1 nM in assay [20], 52.6 nM in assay [21], 15.8 nM in assay [23] and 55.9 nM in assay [24]. For the same compound, the Selectivity Index in assay [22] worked out at 1.
As a reminder, the Ki is a measure of affinity in units of concentration, obtained from inhibition or displacement. For the compound `C#CCN(C)Cc1cc2cc(OCCCC3CCN(Cc4ccccc4)CC3)ccc2n1C`, the Ki in [25] was found to be 84.2 nM. The half-maximal inhibitory concentration (IC50) in [26] is 1820 nM; in assay [27], 810 nM; in [28], 0.27 nM.
